Consider 2 compounds from paper PMC8878717, “The Oxime Ethers with Heterocyclic, Alicyclic and Aromatic Moiety as Potential Anti-Cancer Agents” (Molecules, 2022).

Series [1] is described as follows: MTT cytotoxicity test on HDF cells. Format: cell-based, human. The note with it: human, human dermal fibroblasts (HDF); 50 μg/mL, 24 h exposure. The method, then: (§1) Therefore, compounds showing the highest cytotoxicity (8, 9, 18, 22, 24–27) were further tested on normal human dermal fibroblasts (HDF), A549, Caco-2, and HeLa cells to compare their activity after 24 h and 72 h culture (Figure 5 and Figure 6).
(§2) 2-Acetylbenzofuran, 2-acetylbenzothiophene, 2-acetylthiophene, 2-acetylthiazole, cyclohexanone and acetophenone derivatives were used for in vitro cytotoxicity assays with cervical adenocarcinoma (HeLa), human dermal fibroblasts (HDF), lung epithelial carcinoma (A549), and intestinal epithelial carcinoma (Caco-2) cell lines. A549, Caco-2, and HeLa cells were obtained from Sigma-Aldrich (Germany), and HDF from Biokom (Poland). All cell lines were cultured according to the manufacturer’s protocol under sterile conditions in the presence of 4.9% CO2 at 37 °C. A549 cells were grown in F-12 medium containing 10% fetal bovine serum (FBS) and 1% penicillin/streptomycin. HDF cells were grown in DMEM (low glucose, with 2 mM glutamine) medium containing 10% fetal bovine serum (FBS) and 1% penicillin/streptomycin. Caco-2 cells were grown in EMEM medium containing 10% fetal bovine serum (FBS), 1% non-essential amino acids (NEAA) and 1% penicillin/streptomycin. HeLa cells were grown in DMEM (low glucose, with 2 mM glutamine) medium containing 10% fetal bovine serum (FBS) and 1% gentamycin. After thawing, cells were cultured until they reached sub-confluent state. The cells were then detached using 0.25% trypsin solution and seeded into 24-well or 96-well plates (3 × 10^3 cells per well) for further experiments. After 24 h growth, the tested compounds were added to the cell cultures in concentrations of 1, 10, 50, 100 and 250 μg mL^−1, respectively, and incubated for the next 24 h or 72 h. The MTT test, based on the ability to reduce 3-(4,5-dimethylthiazol 2-yl)-2,5-diphenyltetrazolium bromide (MTT) by mitochondrial dehydrogenases, was performed in triplicate to assess cell metabolic activity and viability. The plates were then read spectrophotometrically at a wavelength of 570 nm. The dose-dependence curves were charted directly on x-/y-axes, with the drug dosages on the x-axis and the cell viability (percentage of viable cells) on the y-axis.
In general terms: Tetrazolium assays rely on reduction of a dye to a coloured formazan, in cell work by metabolically active cells.

In series [2] the test system is human dermal fibroblasts (HDF). As to the kind of experiment: MTT cytotoxicity test on HDF cells. The format is cell-based. As to conditions: Homo sapiens, Fibroblast, HDF, MTT. As for the experimental part:
as §1, §2

Series [3] concerns cells. As to the kind of experiment: LDH activity test (cell-membrane damage), cell lines not given. The note with it: exposure at EC50 concentration, 24 h and 72 h; positive control 1% Triton X-100 = 100%. Format: cell-based, human. The source says: (§3) Summing up, only a few of the 27 tested derivatives could be promising as potential anti-cancer agents. Two of them—compound 22 and 27—would be a good starting point for future research. Therefore, we sought to compare their ability to induce necrotic cell death. Since necrotic cell death relies on the disruption of cell membrane, it results in the extracellular release of cytoplasmic enzymes such as lactate dehydrogenase (LDH). Thus, we compared LDH activity in the extracellular environment (culture media).
(§4) Additionally, the lactate dehydrogenase (LDH) activity test reflecting cell-membrane damage was performed for cells exposed to selected tested compounds. LDH activity was determined in the culture medium by measuring the decrease in NADH (nicotinamide adenine dinucleotide, reduced disodium salt). The decrease in the amount of NADH was directly correlated to the increase in the number of damaged cells. To measure LDH activity, the culture medium was collected from the wells with cells exposed to concentrations equal to the EC50 values of tested compounds after short- (24 h), and long-time (72 h) exposure. The LDH activity test was performed as follows: 25 μL of NADH (2.5 mg/mL) and 25 μL of sodium pyruvate (2.5 mg/mL) were added to 150 μL of the collected culture medium. Absorbance at 340 nm was spectrophotometrically measured. […]

Series [4] deals with HeLa cells. As to the kind of experiment: MTT cytotoxicity test on HeLa cells. Format: cell-based, human. As for the experimental part: Cytotoxic properties of all compounds were determined by 3-(4,5-dimethylthiazol-2-yl)-2,5-diphenyltetrazolium bromide (MTT) test reflecting cell viability. Cytotoxicity screening of all 27 compounds—2-acetylbenzofuran oxime (6) and its oxime ethers (1–5), as well as: 2-acetylthiophene (7–17), cyclohexanone (18–20), acetophenone (21–23), thiazole (24–25), benzothiazole (26–27) oxime ethers—was performed in vitro on human cervical adenocarcinoma (HeLa) cells as the representatives of cancerous cells.
as §2

The subject of series [5] is Caco-2 cells. As to the kind of experiment: MTT cytotoxicity test on Caco-2 cells. Format: cell-based, human. The method, then: as §1, §2
In series [6] the test system is A549 cells. As to the kind of experiment: MTT cytotoxicity test on A549 cells. The note with it: Homo sapiens. The format is cell-based. The method, then:
as §1, §2

Series [7] concerns HeLa cells. The series can be described thus: LDH activity test (cell-membrane damage), HeLa cells. As to conditions: exposure at EC50 concentration. The format is cell-based.
Text: as §3, §4

Where [8] appears, read: 24 h, read-out: EC50 Value HDF 24 h.
[9] abbreviates: 72 h, read-out: EC50 Value HDF 72 h.
The mark [10] stands for this setting: Homo sapiens, HeLa, 24 h, HeLa, 24 h culture, MTT, read-out: EC50 for HeLa Cells.
Setting [11] is: Homo sapiens, HeLa, 72 h, HeLa, 72 h, MTT, read-out: EC50 Value HeLa 72 h.
Where [12] appears, read: Homo sapiens, Caco-2, 24 h, MTT, read-out: EC50 Value Caco-2 24 h.
[13] abbreviates: Homo sapiens, Caco-2, 72 h, MTT, read-out: EC50 Value Caco-2 72 h.
Setting [14] is: A549, 24 h, MTT, read-out: EC50 Value A549 24 h.
Setting [15] is: A549, 72 h, MTT, read-out: EC50 Value A549 72 h.

≈ marks a conversion by molar mass, not a printed value. Where “and” joins values, the source holds several entries; their conditions need not be identical. Equal entries are not always repeated. Where two headings read alike, the source gives them in different places.

In turn, `C/C(=N\OCCN1CCOCC1)c1ccccc1` [Compound 22, (E)-acetophenone O-2-morpholinoethyl oxime] returned a viability at 24 h, 50 μg/mL in series [1] of approximately 20%. The EC50 was 27.3 µg/mL and 110 µM in series [2] (setting [8]); 8.04 µg/mL and 30 µM in series [2] (setting [9]); 23.1 µg/mL and 90 µM in series [4] (setting [10]); 30 µM in series [4] (setting [11]); approximately 30 µM in series [4] (Homo sapiens, HeLa, 72 h, HeLa, 72 h, read-out: EC50 HeLa); 9.45 µg/mL and 40 µM in series [5] (setting [12]). Also, the EC50 in series [5] (setting [13]) was 30 µM; in series [5] (Homo sapiens, Caco-2, 72 h, read-out: EC50 Caco-2), approximately 30 µM; in series [6] (setting [14]), 10.2 µg/mL and 40 µM; in series [6] (setting [15]), 30 µM; in series [6] (A549, 72 h, read-out: EC50 A549), approximately 30 µM. The “increase in LDH activity outside the cells (of positive control)” value in series [3] is not above 20%. In addition, in series [4] (100–250 μg/mL, MTT), the “viability of HeLa cells (of control)” value is given as “below 20%”. The viability at 50 µg/mL in series [4] (Homo sapiens, HeLa, 50 μg/mL, 24 h exposure) was approximately 20%; in series [5] (Homo sapiens, Caco-2, 50 μg/mL, 24 h exposure), approximately 20%; in series [6] (A549, 50 μg/mL, 24 h exposure), approximately 20%.

Turning to `COc1ccc(CO/N=C(\C)c2cc3ccccc3s2)cc1` [Compound 27, (E)-1-(benzothiophene-2-yl)ethanone O-4-methoxybenzyl oxime], the EC50 in series [2] (setting [8]) was 150 µg/mL and 480 µM; in series [2] (setting [9]), 140 µg/mL and 450 µM; in series [4] (setting [10]) it was 93.8 µg/mL and 300 µM; in series [4] (setting [11]) it was 28 µg/mL and 90 µM; in series [5] (setting [12]), 122 µg/mL and 390 µM; in series [5] (setting [13]), 116 µg/mL and 370 µM. Besides, the EC50 in series [6] (setting [14]) is > 250 µg/mL and > 800 µM; in series [6] (setting [15]), 143 µg/mL and 460 µM. Besides, the “membrane damage and release of LDH” value in series [7] is “extreme membrane damage and release of LDH”. The “EC50 Value HeLa 72 h” value in series [4] (HeLa, 72 h, MTT) was 27.9 µg/mL (≈ 89.6 µM). In series [5] (Caco-2, 72 h, MTT), the “EC50 Value Caco-2 72 h” value came out at 116.47 µg/mL (≈ 374 µM).

In general, viability refers to a read-out of living cells in per cent, often relative to untreated cells. The EC50 is the concentration needed to bring the measured effect to its halfway point.
